Results as given in US9273052B2, “Phthalazinone ketone derivative, preparation method thereof, and pharmaceutical use thereof” (Jiangsu Hansoh Pharmaceutical Co., Ltd., priority 2010, dated 2016).

Assays:
MDA-MB-436 cells = experiment: Cell proliferation inhibition assay (CCK8); type: cell-based; conditions: Homo sapiens, 72 hours
[1] = Pharmacokinetics assay in SD rats (LC/MS/MS plasma concentration); type: in vivo; conditions: oral gavage, 15 mg/kg
Procedure: The pharmacokinetic behavior of the compounds of the present invention was studied and evaluated in rats.
24 Healthy adult SD rats, male and female in half, were purchased from SINO-BRITSH SIPPR/BK LAB. ANIMAL LTD., CO, Certificate No.: SCXK (Shanghai) 2003-0002.
The intragastrical administration group: the right amount of tested compounds were weighed and dissolved in 0.5 mL of DMSO, diluted with physiological saline to 10 mL and prepared to 1.5 mg/mL.
The intravenous injection administration group: the right amount of tested compounds were weighed and added into […].
After an overnight fast, 24 healthy adult SD rats, male and female in half, were administered intragastrically at a dose of 15.0 mg/kg and an administration volume of 10 mL/kg.
(§1) The intragastrical administration group: blood samples (0.2 mL) were taken from orbital sinus at pre administration and at 0.25 hour, 0.5 hour, 1.0 hour, 1.5 hours, 2.0 hours, 3.0 hours, 4.0 hours, 6.0 hours, 7.0 hours, 9.0 hours, 12.0 hours and 24.0 hours post administration, stored in heparinized tubes and centrifuged for 20 minutes at 3,500 rpm to separate plasma. The plasma samples were stored at −20° C. The rats were fed at 2 hours after administration.
as §1, with “intravenous injection” for “intragastrical”, “2 minutes, 15 minutes,” for “0.25 hour,”, “hour,” for “hour, 1.5 hours,”, “8.0” for “7.0 hours, 9.0”, “C.” for “C. The rats were fed at 2 hours after administration.”
20 μL of rat blank plasmas taken at various time points after administration were added with 50 μL of internal standard solution and 140 μL of methanol and mixed for 3 minutes by a vortexer. The mixture was centrifuged for 10 minutes at 13,500 rpm. 20 μL of the supernatant was analyzed by LC-MS/MS. The main pharmacokinetic parameters were calculated by software DAS 2.0.

[2] = test system: human colon carcinoma SW620; experiment: Antitumor effect with temozolomide on SW620 transplanted tumors in nude mice; type: in vivo; conditions: colon carcinoma SW620 in BALB/cA-nude mice; 10 mg/kg oral gavage + TMZ 50 mg/kg oral gavage; day 52
Procedure: The therapeutic effect of the compounds of the present invention administered in combination with temozolomide (TMZ) on transplanted tumors of human colon carcinoma SW620 or human breast cancer cells MX-1 in nude mice was evaluated by using BALB/cA-nude mice as test animals.
BALB/cA-nude mice, SPF, 16-20 g, female( ), were purchased from SINO-BRITSH SIPPR/BK LAB. ANIMAL LTD., CO. Certificate No.: SCXK(Shanghai) 2008-0016.
4.2 The right rib of the nude mice was subcutaneously inoculated with colon carcinoma cells SW620. After tumors grew to 339±132 mm^3, mice were randomly divided into teams (d0).
The volume of tumors and the weight of the mice were measured and recorded for 2 to 3 times per week.
The volume of tumor (V) was calculated by the follow equation: V=½×a×b^2 wherein: a, b represents length and width respectively. The antitumor rate(%)=(C−T)/C(%) wherein: T, C represents the tumor volume of the experimental group (tested compounds) and blank control group at the end of the experiment respectively. 5. Dosage, Dosage Regimens and the Results

[3] = test system: human breast cancer cells MX-1; experiment: Antitumor effect with temozolomide on MX-1 transplanted tumors in nude mice; type: in vivo; conditions: breast cancer MX-1 in BALB/cA-nude mice, day 8
Procedure: The therapeutic effect of the compounds of the present invention administered in combination with temozolomide (TMZ) on transplanted tumors of human colon carcinoma SW620 or human breast cancer cells MX-1 in nude mice was evaluated by using BALB/cA-nude mice as test animals. BALB/cA-nude mice, SPF, 16-20 g, female( ), were purchased from SINO-BRITSH SIPPR/BK LAB. ANIMAL LTD., CO. Certificate No.: SCXK(Shanghai) 2008-0016. Nude mice were subcutaneously inoculated with human breast cancer cells MX-1. After tumors grew to 100 to 200 mm^3, mice were randomly divided into teams (d0). The volume of tumors and the weight of the mice were measured and recorded for 2 to 3 times per week. The volume of tumor (V) was calculated by the follow equation: V=½×a×b^2 wherein: a, b represents length and width respectively. The antitumor rate(%)=(C−T)/C(%) wherein: T, C represents the tumor volume of the experimental group (tested compounds) and blank control group at the end of the experiment respectively. 5. Dosage, Dosage Regimens and the Results

SMILES: O=C(c1cc(Cc2n[nH]c(=O)c3ccccc23)ccc1F)N1CCn2nc(C(F)(F)F)nc2C1 [Example 19, 4-[[4-fluoro-3-[2-(trifluoromethyl)-6,8-dihydro-5H-[1,2,4]triazolo[1,5-a]pyrazine-7-carbonyl]phenyl]methyl]-2H-phthalazin-1-one]
- IC50 (MDA-MB-436 cells): 49 nM
- AUC ([1]; both sexes, rat, plasma, read-out: Area Under Curve AUC): 12600 ± 12400 ng·h/mL
- half-life ([1]; both sexes, rat, plasma, read-out: Half-Life t1/2 (converted)): 587 ± 289 min
- MRT ([1]; both sexes, rat, plasma, read-out: Mean Residence Time MRT): 3.5 ± 1.46 h
- Cmax ([1]; both sexes, rat, plasma, read-out: Plasma Conc. Cmax): 2340 ± 1650 ng/mL
- Apparent Distribution Volume Vz/F [1]: 7.97 ± 5.38 kg⁻¹
- Clearance CL/F [1]: 3.45 ± 3.21 1/11/kg
- antitumor rate (%) [2]: ++ (“++”: 60%~80%)
- antitumor rate (%) ([3]; 1 mg/kg oral gavage + TMZ 50 mg/kg oral gavage): +++ (“+++”: 80%~100%)
- antitumor rate (%) ([3]; 3 mg/kg oral gavage + TMZ 50 mg/kg oral gavage): +++ (“+++”: 80%~100%)
- antitumor rate (%) ([3]; 10 mg/kg oral gavage + TMZ 50 mg/kg oral gavage): +++ (“+++”: 80%~100%)
